Experimental data published in patent publication US12605453B2, “CP2C-targeting peptide-based anticancer agent” (Industry-University Cooperation Foundation Hanyang …, priority 2019, dated 2026).
*1 amine or outer side, *2 acyl side, *3 side chain or, on linkers, in order; H or OH if unused. Where a SMILES comes first, the peptide text is derived from it. Bridges are numbered along the chain shown (N, C = ends). Roman numbers before positions name the chains, in order. Side-chain parts run from the residue outwards. The star is where a group is joined. γGlu = O=C(O)[C@H](CCC(=O)[*:2])N[*:1]; Palmitoyl = CCCCCCCCCCCCCCCC(=O)*

Key:
[1] = tested on: Hep3B xenograft mice; format: in vivo
Method: To analyze the anticancer efficacy of the CP2c target peptide-fatty acid conjugates synthesized in Preparation Example 2 in animal models, ACP52CG and ACP52CK were injected into the Hep3B xenograft mice via tail vein 5 times at 3-day intervals.
ACP52CGK was injected into the Hep3B xenograft mice via tail vein at 3 different concentrations (1.39, 2.77, or 5.54 mg/kg) 5 times at 3-day intervals. The tumor volume was measured at every three days after drug injection. The tumor and major tissues were excised from the mice sacrificed on the 24th day after the tumor cell injection. The tumor was weighed and fixed with 4% formaldehyde together with major organs. After making tissue slides through paraffin sections, hematoxylin/eosin staining was performed. The collected blood samples were subjected to basic CBC analysis using a Coulter LH 750 hematology analyzer. The acquired data were statistically processed using an Excel program.
ACP52CGK was injected into Hep3B xenograft mice via tail vein 5 times at intervals of 5 days at 3 different concentrations (1.39, 2.77, 5.54 mg/kg), and the anticancer effect was evaluated in the same manner as described above. […] As a result of a comprehensive analysis of all the results, 2.77 mg/kg was the optimal concentration.

[2] = tested on: various cancer cell lines; experiment: In vitro anticancer effect of C16 fatty acid-binding peptides in various cancer cells; format: cell-based; conditions: for GI50 values compared with control (ACP52C): 48 hours after treatment; for cancer cell-specific cell death: compared with control ACP52C
Method: The anticancer effect of the CP2c-targeting peptide-fatty acid conjugate synthesized in Preparation Example 2 was analyzed in various cancer cells.

[3] = In vivo half-life by live imaging of Cy5-labeled peptide fluorescence in the mouse body; conditions: whole body (mouse body, live imaging), intravenous
Method: To analyze the in vivo half-life of ACP52CGK, Cy5-labeled ACP52CGK was injected into the tail vein of the mouse, and then the fluorescence intensity remaining in the mouse body was measured over time by live imaging process.

[4] = ELISA for antibody formation in sera of injected rabbits (immunogenicity); conditions: rabbit, in vivo
From the text: To verify this, immunogenicity of ACP52CG and ACP52CK was directly tested in the process of deriving the final new drug candidate. Since the final candidate material might be a C-16 palmitoyl acid-conjugated ACP52C peptide, which is not different with ACP52CG and ACP52CK in terms of chemical composition, it was decided to analyze whether antibodies were formed on ACP52CG and ACP52CK. […] Therefore, it was concluded that the final candidate material (ACP52CGK) would also not show immunogenicity in the human body (FIG. 21).

[5] = tested on: normal cell line; experiment: Cell growth analysis in normal cell line; format: cell-based
From the text: FIGS. 10a to 10g illustrate cell growth analysis results dependent upon treatment with ACP52CGK (=γC16-ACP52 cm) in normal cell lines (BEAS2B and hMSC) and cancer cell lines (Hep3B, Hs746T, Caov-3, MDA-MB-231, U343, HCT116, PANC1, PC3, A549, and THP-1).

[6] = tested on: MDA-MB-231 (LM1) xenograft mice; format: in vivo; conditions: for anticancer effect: tail vein 5 times at 3-day intervals
Method: The anticancer effect of ACP52CGK was analyzed in MDA-MB-231 (LM1) xenograft mice in the same manner as in the Hep3B xenograft mouse model experiments.

[7] = tested on: cells primary cultured from PDX (patient derived xenograft) tumor tissue; experiment: Efficacy in cells primary cultured from PDX tumor tissue; format: cell-based
[8] = Repeated toxicity test of ACP52CGK, 28 days, female and male mice; format: in vivo, mouse; conditions: 100 mg/kg
Method: A repeated toxicity test for the in vivo administration of ACP52CGK was conducted using female and male mice. […] As a full-scale experiment, after intravenous infusion of ACP52CGK for 28 days at 3-day intervals into the solvent group and high-dose group (100 mg/Kg) of 6 males and females each, the weight change, drinking water intake, and main histological analysis of organs, organ weight, hematological tests and blood biochemical tests were analyzed.

[9] = tested on: liver cancer induced by DEN treatment; experiment: Liver cancer mouse model induced by DEN treatment; format: in vivo; conditions: for efficacy: mice 15 weeks after DEN treatment
Method: In addition, […] (7 to 8 mice/group), such as a control group (mock) treated with only a vehicle, a sorafenib group (an approved drug for liver cancer treatment), and an ACP52CG-GFLGE (SEQ ID NO: 16) (ACP52CK) group. The drug was injected through the tail vein a total of 12 times at a concentration of 5 mg/kg at 3-day intervals.

[10] = tested on: caspase2; experiment: Immunoblot of MDM2p90 and MDM2p60 after caspase2 inhibitor treatment; format: cell-based; conditions: lung cancer cells
Method: Meanwhile, when a caspase2 inhibitor (AC-VDVAD (SEQ ID NO: 11)-CHO) was treated to identify a phenomenon that occurs due to the high activity of caspase2 specifically in lung cancer cells, it was found by immunoblot that the protein amount of MDM2p90 increased, while the protein amount of MDM2p60 decreased according to the treatment with the Caspase2 inhibitor. Therefore, we concluded that the MDM2p60 form, which is overexpressed in lung cancer cells, is the result of cleavage of MDM2p90 by caspase2. […] As a result, efficacy was observed around GI50˜1 μM in the group treated with the combination of the caspase 2 inhibitor and ACP52C (FIGS. 34a to 34d, FIG. 35).

[11] = tail vein 5 times at 3-day intervals

**Q.** What does the source list for `CCCCCCCCCCCCCCCC(=O)N[C@@H](CCC(=O)NCCCC[C@H](NC(=O)CNC(=O)CNC(=O)[C@@H]1CCCN1C(=O)[C@H](CCCNC(=N)N)NC(=O)[C@H](CCC(N)=O)NC(=O)[C@@H]1CCCN1C(=O)[C@H](Cc1ccc(O)cc1)NC(=O)[C@H](CC(N)=O)NC(C)=O)C(=O)NCC(=O)NCC(=O)N[C@@H](CS)C(=O)N[C@@H](CCCNC(=N)N)C(=O)NCC(=O)N[C@@H](CC(=O)O)C(=O)N[C@@H](CCCCN)C(=O)NCC(=O)N1CCC[C@H]1C(=O)N[C@@H](CC(=O)O)C(=O)N[C@@H](CS)C(N)=O)C(=O)O` [ACP52CGK] (Ac-NYPQRPGGK([γGlu-Palmitoyl])GGCRGDKGPDC-NH2)?
**A.** tumor inhibition and metastasis inhibition effects ([1]; 1.39, 2.77, 5.54 mg/kg, tail vein 5 times at intervals of 5 days): tumor inhibition and metastasis inhibition effects superior to the sorafenib and ACP52C treatment groups; tumor metastasis inhibition effect (tumor area metastasized to the lung) ([1]; 1.39, 2.77, or 5.54 mg/kg, 5 times at 3-day intervals): superior to ACP52C in the tumor metastasis inhibition effect; tumor suppressive effect ([1]; 1.39, 2.77, or 5.54 mg/kg, tail vein 5 times at 3-day intervals): tumor suppressive effect similar to that of ACP52C; optimal concentration ([1]; comprehensive analysis of 3-day and 5-day interval results): 2.77 mg/kg; GI50 values compared with control (ACP52C) [2]: like or more efficient than that of the control; cancer cell-specific cell death [2]: induced cancer cell-specific cell death similarly to the control group; half-life [3]: ~20.2 h; immune response of sera from rabbits injected with ACP52CG and ACP52CK three times (ELISA) [4]: did not induce immune responses; effect on normal cells [5]: no significant effect on normal cells; tumor suppression and metastasis inhibition effects ([6]; 1.39, 2.77, or 5.54 mg/kg, 3-day and 5-day intervals): superior to those of the sorafenib and ACP52C-treated groups; optimal concentration ([6]; mouse, in vivo): 2.77 mg/kg; sensitivity across PDX generations ([7]; cells derived from the same origin, each generation): not significantly different; resistance ([7]; primarily cultured cells from some PDX tumor tissues): showed resistance; Relative organ weight, Kidney ([8]; female mice): 1.34 ± 0.06%; Relative organ weight, Kidney ([8]; male mice): 1.50 ± 0.08%; Absolute organ weight, Epididymis ([8]; mouse, in vivo): 0.0482 ± 0.0127 g; Absolute organ weight, Ovary ([8]; mouse, in vivo): 0.0059 ± 0.0012 g; Absolute organ weight, Testis ([8]; mouse, in vivo): 0.1693 ± 0.0169 g; Absolute organ weight, Uterus ([8]; mouse, in vivo): 0.0638 ± 0.0227 g; Relative organ weight, Epididymis ([8]; mouse, in vivo): 0.24 ± 0.07%; Relative organ weight, Ovary ([8]; mouse, in vivo): 0.0326 ± 0.0054%; Relative organ weight, Testis ([8]; mouse, in vivo): 0.83 ± 0.08%; Relative organ weight, Uterus ([8]; mouse, in vivo): 0.35 ± 0.12%

**Q.** Which anticancer efficacy [1, 11] does the source give for `CCCCCCCCCCCCCCCC(=O)N[C@@H](CCC(=O)O)C(=O)NCCCC[C@H](NC(C)=O)C(=O)NCC(=O)NCC(=O)N[C@@H](CC(N)=O)C(=O)N[C@@H](Cc1ccc(O)cc1)C(=O)N1CCC[C@H]1C(=O)N[C@@H](CCC(N)=O)C(=O)N[C@@H](CCCNC(=N)N)C(=O)N1CCC[C@H]1C(=O)N[C@@H](CS)C(=O)N[C@@H](CCCNC(=N)N)C(=O)NCC(=O)N[C@@H](CC(=O)O)C(=O)N[C@@H](CCCCN)C(=O)NCC(=O)N1CCC[C@H]1C(=O)N[C@@H](CC(=O)O)C(=O)N[C@@H](CS)C(N)=O` [ACP52CG] (Ac-K([Glu-Palmitoyl])GGNYPQRPCRGDKGPDC-NH2) here?
**A.** showed similar efficacy to sorafenib, but their efficacy was inferior to that of ACP52C

**Q.** And the “GI50 values compared with control (ACP52C)” value [2]?
**A.** like or more efficient than that of the control

**Q.** And the “cancer cell-specific cell death” value [2]?
**A.** induced cancer cell-specific cell death similarly to the control group

**Q.** And the efficacy [9]?
**A.** superior to another control, FQI1, but did not show any superior efficacy compared to ACP52C

**Q.** What about the “immune response of sera from rabbits injected with ACP52CG and ACP52CK three times (ELISA)” value [4] of the same compound?
**A.** did not induce immune responses

**Q.** What about the anticancer effect [6] of the same compound?
**A.** showed tumor regression efficacy, but the anticancer effect was not significant

**Q.** With `CCCCCCCCCCCCCCCC(=O)NCC(=O)N[C@@H](Cc1ccccc1)C(=O)N[C@@H](CC(C)C)C(=O)NCC(=O)N[C@@H](CCC(=O)O)C(=O)NCCCC[C@H](NC(C)=O)C(=O)NCC(=O)NCC(=O)N[C@@H](CC(N)=O)C(=O)N[C@@H](Cc1ccc(O)cc1)C(=O)N1CCC[C@H]1C(=O)N[C@@H](CCC(N)=O)C(=O)N[C@@H](CCCNC(=N)N)C(=O)N1CCC[C@H]1C(=O)N[C@@H](CS)C(=O)N[C@@H](CCCNC(=N)N)C(=O)NCC(=O)N[C@@H](CC(=O)O)C(=O)N[C@@H](CCCCN)C(=O)NCC(=O)N1CCC[C@H]1C(=O)N[C@@H](CC(=O)O)C(=O)N[C@@H](CS)C(N)=O` [ACP52CK] (I: Ac-KGGNYPQRPCRGDKGPDC-NH2 / II: Palmitoyl-GFLGE; amide I:1-II:C) as the compound, how does the anticancer efficacy [1, 11] read?
**A.** showed similar efficacy to sorafenib, but their efficacy was inferior to that of ACP52C

**Q.** What about the “GI50 values compared with control (ACP52C)” value [2] of the same compound?
**A.** like or more efficient than that of the control

**Q.** And the “cancer cell-specific cell death” value [2]?
**A.** induced cancer cell-specific cell death similarly to the control group

**Q.** And the efficacy [9]?
**A.** superior to another control, FQI1, but did not show any superior efficacy compared to ACP52C

**Q.** What about the “immune response of sera from rabbits injected with ACP52CG and ACP52CK three times (ELISA)” value [4] of the same compound?
**A.** did not induce immune responses

**Q.** What about the anticancer effect [6] of the same compound?
**A.** showed tumor regression efficacy, but the anticancer effect was not significant

**Q.** With `CNC(=O)c1cc(Oc2ccc(NC(=O)Nc3ccc(Cl)c(C(F)(F)F)c3)cc2)ccn1` [sorafenib, reference compound] as the compound, how does the “anticancer effect compared to the control group” value ([9]; mice 22 weeks after DEN treatment, 5 mg/kg tail vein 12 times at 3-day intervals) read?
**A.** significant anticancer effect (p=0.04)

**Q.** For “AC-VDVAD (SEQ ID NO: 11)-CHO (Ac-VDVAD-aldehyde) [caspase2 inhibitor]”, which “protein amount of MDM2p60” value [10] is on record?
**A.** decreased

**Q.** And the “protein amount of MDM2p90” value [10]?
**A.** increased
